The source of these data is patent publication US9067914B1, “Tropomyosin-related kinase (TRK) inhibitors” (Genzyme Corporation, priority 2013, dated 2015).

In test [1] the target is TrkB (Homo sapiens (Human), UniProt Q16620). The test can be described thus: TrkB activity, off-chip mobility shift assay (LabChip 3000). The class given is biochemical. An excerpt:
(§1) Reagents and consumables were purchased from Sigma Aldrich, Carna Biosciences, or Caliper Life Sciences. All assay reaction conditions for IC50 determinations were within the linear range with respect to time and enzyme concentration. […] The LabChip 3000 separates and measures the fluorescent signal of fluorescein labeled peptide substrate and fluorescein labeled peptide product present in each well. Results are expressed as percent conversion by measuring peak height for both the substrate and product and dividing the product peak height by the sum of peak heights for both substrate and product.

Test [2] deals with TrkA (Homo sapiens (Human), UniProt P04629). The test can be described thus: TrkA activity, off-chip mobility shift assay (LabChip 3000). The class given is biochemical. As to conditions: 55 μM ATP (ATP Km); n/d = none detected.
Description: as §1

The mark [3] stands for this setting: 70 μM ATP (ATP Km), n/d = none detected.

Counter-ions that a name gives are not always drawn. Like-named read-outs stand apart in the source and are kept apart here.

Sequence of TrkA (P04629 33-796): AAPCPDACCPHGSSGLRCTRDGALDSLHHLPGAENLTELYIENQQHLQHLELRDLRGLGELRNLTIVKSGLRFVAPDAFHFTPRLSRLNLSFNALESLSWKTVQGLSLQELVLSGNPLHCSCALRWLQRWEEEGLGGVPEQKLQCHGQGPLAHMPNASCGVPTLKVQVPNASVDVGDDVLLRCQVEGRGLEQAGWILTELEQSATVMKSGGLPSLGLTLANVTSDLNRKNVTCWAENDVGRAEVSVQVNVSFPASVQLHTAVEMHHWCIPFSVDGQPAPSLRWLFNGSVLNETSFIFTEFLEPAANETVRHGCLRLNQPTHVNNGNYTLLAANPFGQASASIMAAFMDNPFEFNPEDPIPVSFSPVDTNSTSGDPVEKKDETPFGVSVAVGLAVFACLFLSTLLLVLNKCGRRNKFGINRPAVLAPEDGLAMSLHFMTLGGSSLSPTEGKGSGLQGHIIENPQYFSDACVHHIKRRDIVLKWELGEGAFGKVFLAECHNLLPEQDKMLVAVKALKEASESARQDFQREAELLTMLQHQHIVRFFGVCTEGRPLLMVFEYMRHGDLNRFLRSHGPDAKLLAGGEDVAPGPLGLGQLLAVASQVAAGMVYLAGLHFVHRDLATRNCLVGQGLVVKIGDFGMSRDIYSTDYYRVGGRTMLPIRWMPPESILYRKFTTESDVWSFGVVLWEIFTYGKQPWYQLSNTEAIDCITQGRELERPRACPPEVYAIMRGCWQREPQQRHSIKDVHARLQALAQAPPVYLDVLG
Sequence of TrkB (Q16620 32-822): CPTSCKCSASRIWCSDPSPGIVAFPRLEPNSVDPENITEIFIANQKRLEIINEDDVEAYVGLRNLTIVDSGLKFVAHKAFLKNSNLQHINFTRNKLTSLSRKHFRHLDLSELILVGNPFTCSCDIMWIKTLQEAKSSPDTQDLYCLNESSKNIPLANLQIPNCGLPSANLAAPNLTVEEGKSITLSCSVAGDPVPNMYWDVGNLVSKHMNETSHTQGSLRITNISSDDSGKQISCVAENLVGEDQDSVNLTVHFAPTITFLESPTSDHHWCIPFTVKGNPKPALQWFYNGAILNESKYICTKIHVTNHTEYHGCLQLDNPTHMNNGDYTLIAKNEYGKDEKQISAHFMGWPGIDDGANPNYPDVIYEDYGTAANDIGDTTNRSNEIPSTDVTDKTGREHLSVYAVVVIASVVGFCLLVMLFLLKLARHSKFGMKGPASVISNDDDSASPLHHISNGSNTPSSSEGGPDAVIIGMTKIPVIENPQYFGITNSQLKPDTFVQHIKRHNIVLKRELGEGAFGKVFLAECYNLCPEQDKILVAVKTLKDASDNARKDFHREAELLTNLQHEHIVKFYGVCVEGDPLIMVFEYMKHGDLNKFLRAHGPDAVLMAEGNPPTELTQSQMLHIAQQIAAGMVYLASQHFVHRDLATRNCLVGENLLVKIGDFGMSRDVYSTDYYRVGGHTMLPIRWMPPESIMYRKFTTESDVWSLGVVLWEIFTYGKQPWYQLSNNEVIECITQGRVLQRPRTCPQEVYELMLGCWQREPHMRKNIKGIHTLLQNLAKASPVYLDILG

`COc1ccc(COc2ccc(Cn3cnc4cc(C5=CC6(O)CCCN5C6)ccc43)cc2OC)cn1` (stereo not drawn) [Ex. 3-33, 7-(1-(3-Methoxy-4-((6-methoxypyridin-3-yl)methoxy)benzyl)-1H-benzo[d]imidazol-5-yl)-1-azabicyclo[3.2.1]oct-6-en-5-ol]: the IC50 (in general, the concentration needed to halve the response being measured) is 0.372 µM in test [1] (setting [3]) and 1.16 µM in test [2].
For `COc1ccc(COc2ccc(Cn3c(N)nc4cc(-c5ccn(C)n5)cnc43)cc2OC)cn1` [Ex. 3-37-2, 3-(3-methoxy-4-((6-methoxypyridin-3-yl)methoxy)benzyl)-6-(1-methyl-1H-pyrazol-3-yl)-3H-imidazo[4,5-b]pyridin-2-amine] the same measures were 0.002 µM and 0.003 µM.
For `COc1ccc(COc2ccc(Cn3cnc4cc(N5CCC(N)CC5)cnc43)cc2OC)cn1` [Ex. 3-18-6, 1-(3-(3-Methoxy-4-((6-methoxypyridin-3-yl)methoxy)benzyl)-3H-imidazo[4,5-b]pyridin-6-yl)piperidin-4-amine], in that order: 0.133 µM and 0.232 µM.
Take `COc1cc(Cn2c(N)nc3cc(-c4cnn(C)c4)cnc32)ccc1OCc1ccc(C(F)(F)F)cc1` [Ex. 3-35-3, 3-(3-methoxy-4-((4-(trifluoromethyl)benzyl)oxy)benzyl)-6-(1-methyl-1H-pyrazol-4-yl)-3H-imidazo[4,5-b]pyridin-2-amine]: the IC50 in test [1] (setting [3]) turned out to be 0.0003 µM; in test [2], 0.0002 µM.
For `COc1ccc(COc2ccc(C(C)n3c(N)nc4cc(-c5cnn(C)c5)ccc43)cc2OC)cn1` (stereo not drawn) [Ex. 3-45, 1-(1-(3-methoxy-4-((6-methoxypyridin-3-yl)methoxy)phenyl)ethyl)-5-(1-methyl-1H-pyrazol-4-yl)-1H-benzo[d]imidazol-2-amine], in that order: 0.001 µM and 0.003 µM.
For `COc1cc(Cn2c(N)nc3cc(-c4cnn(C)c4)cnc32)ccc1OCc1ccc(C2CC2)nc1` [Ex. 3-35-4, 3-(4-((6-cyclopropylpyridin-3-yl)methoxy)-3-methoxybenzyl)-6-(1-methyl-1H-pyrazol-4-yl)-3H-imidazo[4,5-b]pyridin-2-amine], in that order: 0.0002 µM and 0.0002 µM.
For `COc1ccc(COc2ccc(Cn3cnc4cc(-n5cc(C(C)(C)N)nn5)cnc43)cc2OC)cn1` [Ex. 3-24, 2-(1-(3-(3-Methoxy-4-((6-methoxypyridin-3-yl)methoxy)benzyl)-3H-imidazo[4,5-b]pyridin-6-yl)-1H-1,2,3-triazol-4-yl)propan-2-amine], in that order: 0.043 µM and 0.088 µM.
For `COc1ccc(COc2ccc(Cn3c(N)nc4cc(-c5c(C)nn(C)c5C)cnc43)cc2OC)cn1` [Ex. 3-37-4, 3-(3-methoxy-4-((6-methoxypyridin-3-yl)methoxy)benzyl)-6-(1,3,5-trimethyl-1H-pyrazol-4-yl)-3H-imidazo[4,5-b]pyridin-2-amine], the 50% inhibitory concentration (IC50) in test [1] (setting [3]) amounted to 0.013 µM; in test [2], 0.014 µM.
In the case of `COc1ccc(COc2ccc(Cn3c(N)nc4cc(-c5ccncc5)ccc43)cc2OC)cc1` [Ex. 3-2-2, 1-(3-Methoxy-4-((4-methoxybenzyl)oxy)benzyl)-5-(pyridine-4-yl)-1H-benzo[d]imidazol-2-amine], the results for the half-maximal inhibitory concentration (IC50) in test [1] (setting [3]) and in test [2] were 0.004 µM and 0.008 µM, respectively.
For `COc1ccc(COc2ccc(Cn3cnc4cc(C5=CC6(C)CCCN5C6)ccc43)cc2OC)cn1` (stereo not drawn) [Ex. 3-31, 1-(3-methoxy-4-((6-methoxypyridin-3-yl)methoxy)benzyl)-5-(5-methyl-1-azabicyclo[3.2.1]oct-6-en-7-yl)-1H-benzo[d]imidazole], in that order: 0.889 µM and 1.48 µM.
For `COc1cc(Cn2c(N)nc3cc(-c4cnn(C)c4)cnc32)ccc1OCc1ccc(C(F)(F)F)nc1` [Ex. 3-35-2, 3-(3-methoxy-4-((6-(trifluoromethyl)pyridin-3-yl)methoxy)benzyl)-6-(1-methyl-1H-pyrazol-4-yl)-3H-imidazo[4,5-b]pyridin-2-amine], in that order: 0.0002 µM and 0.0002 µM.
Take `COc1ccc(COc2ccc(Cn3cnc4cc(-c5noc(C6CCNCC6)n5)cnc43)cc2OC)cn1` [Ex. 3-21, 3-(3-(3-Methoxy-4-((6-methoxypyridin-3-yl)methoxy)benzyl)-3H-imidazo[4,5-b]pyridin-6-yl)-5-(piperidin-4-yl)-1,2,4-oxadiazole]: the half-maximal inhibitory concentration (IC50) in test [1] (setting [3]) worked out at 0.024 µM; in test [2] it was 0.026 µM.
For `COc1ccc(COc2ccc(Cn3cnc4cc(-n5cc(C6CCCNC6)nn5)ccc43)cc2OC)cn1` (stereo not drawn) [Ex. 3-6, 1-(3-Methoxy-4-((6-methoxypyridin-3-yl)methoxy)benzyl)-5-(4-(piperidin-3-yl)-1H-1,2,3-triazol-1-yl)-1H-benzo[d]imidazole] the same measures were 0.086 µM and 0.175 µM.
With `COc1ccc(COc2ccc(Cn3c(N)nc4cc(-c5ccc(P(C)(C)=O)nc5)ccc43)cc2OC)cc1` [Ex. 3-3, (5-(2-Amino-1-(3-methoxy-4-((4-methoxybenzyl)oxy)benzyl)-1H-benzo[d]imidazol-5-yl)pyridin-2-yl)dimethylphosphine oxide], the IC50 in test [1] (setting [3]) was 0.006 µM; in test [2], 0.007 µM.
For `COc1ccc(COc2cc(F)c(Cn3cnc4cc(N5CCN(C)CC5)ccc43)cc2OC)cn1` [Ex. 3-27, 1-(2-fluoro-5-methoxy-4-((6-methoxypyridin-3-yl)methoxy)benzyl)-5-(4-methylpiperazin-1-yl)-1H-benzo[d]imidazole], in that order: 0.305 µM and 0.852 µM.
For `COc1ccc(COc2ccc(Cn3cnc4cc(N5CCN(C)CC5)ccc43)cc2OC)cn1` [Ex. 3-13, 1-(3-Methoxy-4-((6-methoxypyridin-3-yl)methoxy)benzyl)-5-(4-methylpiperazin-1-yl)-1H-benzo[d]imidazole], in that order: 0.443 µM and 1.13 µM.
For `COc1ccc(COc2ccc(Cn3c(N)nc4cc(-c5cnn(CCN6CCOCC6)c5)ccc43)cc2OC)cc1` [Ex. 3-2-3, 1-(3-Methoxy-4-((4-methoxybenzyl)oxy)benzyl)-5-(1-(2-morpholinoethyl)-1H-pyrazol-4-yl)-1H-benzo[d]imidazol-2-amine] the same measures were 0.001 µM and 0.003 µM.
Consider `COc1ccc(-c2cnc3c(c2)ncn3Cc2ccc(OC(C)c3ccc(OC)nc3)c(OC)c2)cn1` (stereo not drawn) [Ex. 3-58-2, 3-(3-methoxy-4-(1-(6-methoxypyridin-3-yl)ethoxy)benzyl)-6-(6-methoxypyridin-3-yl)-3H-imidazo[4,5-b]pyridine formate], for which the IC50 was 0.061 µM in test [1] (setting [3]) and 0.16 µM in test [2].
For `COc1ccc(COc2ccc(Cn3cnc4cc(C5CCNCC5)ccc43)cc2OC)cn1` [Ex. 3-8, 1-(3-Methoxy-4-((6-methoxypyridin-3-yl)methoxy)benzyl)-5-(piperidin-4-yl)-1H-benzo[d]imidazole], in that order: 3.46 µM and 11.1 µM.
For `COc1ccc(COc2ccc(Cn3cnc4cc(N5CC6(CCNCC6)C5)cnc43)cc2OC)cn1` [Ex. 3-18-5, 3-(3-Methoxy-4-((6-methoxypyridin-3-yl)methoxy)benzyl)-6-(2,7-diazaspiro[3.5]nonan-2-yl)-3H-imidazo[4,5-b]pyridine] the same measures were 0.021 µM and 0.025 µM.
For `COc1ccc(COc2ccc(Cn3cnc4cc(C5=CC6(C)CCCN5C6)cnc43)cc2OC)cn1` (stereo not drawn) [Ex. 3-30, 3-(3-Methoxy-4-((6-methoxypyridin-3-yl)methoxy)benzyl)-6-(5-methyl-1-azabicyclo[3.2.1]oct-6-en-7-yl)-3H-imidazo[4,5-b]pyridine], in that order: 0.118 µM and 0.201 µM.
On to `COc1ccc(COc2ccc(Cn3cnc4cc(N5CCN(C6CC6)CC5)cnc43)cc2OC)cn1` [Ex. 3-18-3, 6-(4-Cyclopropylpiperazin-1-yl)-3-(3-methoxy-4-((6-methoxypyridin-3-yl)methoxy)benzyl)-3H-imidazo[4,5-b]pyridine], for which the values for the IC50 in test [1] (setting [3]) and in test [2] were 0.052 µM and 0.113 µM, respectively.
For the compound `COc1cc(Cn2cnc3cc(-c4cnn(C5CCNCC5)c4)cnc32)ccc1OCc1ccc(C)nc1` [Ex. 3-20, 3-(3-Methoxy-4-((6-methylpyridin-3-yl)methoxy)benzyl)-6-(1-(piperidin-4-yl)-1H-pyrazol-4-yl)-3H-imidazo[4,5-b]pyridine], the IC50 in test [1] (setting [3]) came out at 0.0006 µM; in test [2], 0.0009 µM.
For `COc1cc(C(C)n2cnc3cc(C#CCCO)ccc32)ccc1OCc1ccc(C(F)(F)F)nc1` (stereo not drawn) [Ex. 3-48-2, 4-(1-(1-(3-methoxy-4-((6-(trifluoromethyl)pyridin-3-yl)methoxy)phenyl)ethyl)-1H-benzo[d]imidazol-5-yl)but-3-yn-1-ol] the same measures were 0.127 µM and 0.692 µM.
For `COc1ccc(COc2ccc(Cn3c(N)nc4cc(-c5cnn(C)c5)cnc43)cc2OC)cn1` [Ex. 3-35-1, 3-(3-methoxy-4-((6-methoxypyridin-3-yl)methoxy)benzyl)-6-(1-methyl-1H-pyrazol-4-yl)-3H-imidazo[4,5-b]pyridin-2-amine], in that order: 0.0003 µM and 0.0006 µM.
Turning to `COc1ccc(COc2ccc(Cn3cnc4cc(N5CCOCC5)ccc43)cc2OC)cn1` [Ex. 3-9, 4-(1-(3-Methoxy-4-((6-methoxypyridin-3-yl)methoxy)benzyl)-1H-benzo[d]imidazol-5-yl)morpholine], the results for the concentration for half-maximal inhibition (IC50) in test [1] and in test [2] were 0.257 µM and 0.793 µM, respectively.
As for `COc1cc(Cn2cnc3cc(C#CCCO)cnc32)ccc1OCc1ccc(C(F)F)nc1` [Ex. 3-56, 4-(3-(4-((6-(difluoromethyl)pyridin-3-yl)methoxy)-3-methoxybenzyl)-3H-imidazo[4,5-b]pyridin-6-yl)but-3-yn-1-ol], the 50% inhibitory concentration (IC50) in test [1] (setting [3]) amounted to 0.004 µM; in test [2], 0.017 µM.
